Test results from patent US10407409B2, “6-(5-hydroxy-1H-pyrazol-1-yl)nicotinamide inhibitors of PHD” (Takeda Pharmaceutical Company Limited, priority 2013, dated 2019).
Where a name gives a salt, the structure may show the parent alone.

Biological target: PHD2 enzyme (residues 181-417) (Homo sapiens (Human), UniProt Q9GZT9)
Test: Inhibition of PHD enzyme (LC/MS peptide hydroxylation assay)
Type: biochemical
Settings: PHD2 (residues 181-417) 5 nM, 60 min pre-incubation; -log(IC50), IC50 molar
Experimental: Example A Inhibition of PHD Enzyme
The IC50 values for the PHD2 enzyme (residues 181-417) were determined by mixing increasing amounts of inhibitor with a fixed amount of enzyme (5 nM, final concentration) and Biotin labeled peptide (Biotin-Asp-Leu-Glu-Met-Leu-Ala-Pro-Tyr-Ile-Pro-Met-Asp-Asp-Asp-Phe-Gln-Leu, 1 uM final concentration) and 2-Oxyglutarate (2 uM final concentration) in 50 mM HEPES, 50 mM KCl, 0.5 mM TCEP, 2 uM FeCl2, 0.1 mg/ml BSA, at pH 7.3. The reaction was conducted by pre-incubating the enzyme in the presence of inhibitor for 60 min at room temperature. The activity of the free enzyme was measured by adding the peptide, the 2-Oxoglutarate (see above for final concentrations), and Ascorbic Acid (1 mM final concentration). The enzymatic activity was quenched after 60 min by adding an excess of a tight binding inhibitor to the assay mixture. The amount of product released was measured by using a LC/MS system (Agilent HPLC with Applied Biosystems API3000 Mass Spectrometer). Data were analyzed using the classical isotherm equation for the determination of IC50 values and are pIC50, i.e., −log(IC50), where IC50 is molar concentration and are reported as pIC50, i.e., −log(IC50), where IC50 is molar concentration.

Sequence of PHD2 enzyme (residues 181-417) (Q9GZT9 181-417): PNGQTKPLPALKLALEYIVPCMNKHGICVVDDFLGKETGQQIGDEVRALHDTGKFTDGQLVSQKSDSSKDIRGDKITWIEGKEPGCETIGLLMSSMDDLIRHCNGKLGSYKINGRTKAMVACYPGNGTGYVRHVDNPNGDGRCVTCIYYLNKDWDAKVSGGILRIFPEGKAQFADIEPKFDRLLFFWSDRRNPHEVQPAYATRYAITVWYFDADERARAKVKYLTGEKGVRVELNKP

| Structure (SMILES) | PHD Inhibition (pIC50) |
| --- | --- |
| COc1cc(-c2cnn(-c3ccc(C(=O)NC(CO)C4CCOC4)cn3)c2O)ccn1 (stereo not drawn) [Example 27, N-(2-hydroxy-1-(tetrahydrofuran-3-yl)ethyl)-6-(5-hydroxy-4-(2-methoxypyridin-4-yl)-1H-pyrazol-1-yl)nicotinamide] | 6.99 |
| COc1cc(-c2cnn(-c3ccc(C(=O)NCCCCO)cn3)c2O)ccn1 [Example 28, 6-(5-hydroxy-4-(2-methoxypyridin-4-yl)-1H-pyrazol-1-yl)-N-(4-hydroxybutyl)nicotinamide] | 7.01 |
| CCN1CCC(NC(=O)c2ccc(-n3ncc(-c4ccnc(OC)c4)c3O)nc2)CC1 [Example 37, N-(1-ethylpiperidin-4-yl)-6-(5-hydroxy-4-(2-methoxypyridin-4-yl)-1H-pyrazol-1-yl)nicotinamide] | 7.4 |
| COc1cc(-c2cnn(-c3ccc(C(=O)NCCCN(C)C)cn3)c2O)ccn1 [Example 44, N-(3-(dimethylamino)propyl)-6-(5-hydroxy-4-(2-methoxypyridin-4-yl)-1H-pyrazol-1-yl)nicotinamide] | 7.3 |
| N#Cc1ccc(-c2cnn(-c3ccc(C(=O)N[C@H]4CCNC4)cn3)c2O)cc1 [Example 73, (S)-6-(4-(4-cyanophenyl)-5-hydroxy-1H-pyrazol-1-yl)-N-(pyrrolidin-3-yl)nicotinamide] | 7.2 |
| CC1CCCCN1CCCNC(=O)c1ccc(-n2ncc(-c3ccc(C#N)cc3)c2O)nc1 (stereo not drawn) [Example 90, 6-(4-(4-cyanophenyl)-5-hydroxy-1H-pyrazol-1-yl)-N-(3-(2-methylpiperidin-1-yl)propyl)nicotinamide] | 6.95 |
| CN1CCC(CNC(=O)c2ccc(-n3ncc(-c4ccc(C#N)cc4)c3O)nc2)C1 (stereo not drawn) [Example 92, 6-(4-(4-cyanophenyl)-5-hydroxy-1H-pyrazol-1-yl)-N-((1-methylpyrrolidin-3-yl)methyl)nicotinamide] | 6.87 |
| COCCC1(NC(=O)c2ccc(-n3ncc(-c4ccc(C#N)cc4F)c3O)nc2)CC1 [Example 210, 6-(4-(4-cyano-2-fluorophenyl)-5-hydroxy-1H-pyrazol-1-yl)-N-(1-(2-methoxyethyl)cyclopropyl)nicotinamide] | 8.3 |
| CN(C)c1cc(-c2cnn(-c3ccc(C(=O)NCC4CCOCC4)cn3)c2O)ccn1 [Example 212, 6-(4-(2-(dimethylamino)pyridin-4-yl)-5-hydroxy-1H-pyrazol-1-yl)-N-((tetrahydro-2H-pyran-4-yl)methyl)nicotinamide] | 6.21 |
| Cc1cc(-c2cnn(-c3ccc(C(=O)NCC4CCOCC4)cn3)c2O)cc(C)n1 [Example 224, 6-(4-(2,6-dimethylpyridin-4-yl)-5-hydroxy-1H-pyrazol-1-yl)-N-((tetrahydro-2H-pyran-4-yl)methyl)nicotinamide] | 5.83 |
| O=C(NCC1CCOCC1)c1ccc(-n2ncc(-c3ccncc3)c2O)nc1 [Example 226, 6-(5-hydroxy-4-(pyridin-4-yl)-1H-pyrazol-1-yl)-N-((tetrahydro-2H-pyran-4-yl)methyl)nicotinamide] | 6.6 |
| COCCCN(C)C(=O)c1ccc(-n2ncc(-c3ccc(C#N)cc3OC)c2O)nc1 [Example 240, 6-(4-(4-cyano-2-methoxyphenyl)-5-hydroxy-1H-pyrazol-1-yl)-N-(3-methoxypropyl)-N-methylnicotinamide] | 6.63 |
| N#Cc1ccc(-c2cnn(-c3ccc(C(=O)NCC4CCC4)cn3)c2O)cc1 [Example 256, 6-(4-(4-cyanophenyl)-5-hydroxy-1H-pyrazol-1-yl)-N-(cyclobutylmethyl)nicotinamide] | 6.72 |
| CC1CC(CNC(=O)c2ccc(-n3ncc(-c4ccc(C#N)cc4)c3O)nc2)C1 (stereo not drawn) [Example 257, 6-(4-(4-cyanophenyl)-5-hydroxy-1H-pyrazol-1-yl)-N-((3-methylcyclobutyl)methyl)nicotinamide] | 7.24 |
| CNCCCNC(=O)c1ccc(-n2ncc(-c3ccc(C#N)cc3)c2O)nc1 [Example 272, 6-(4-(4-cyanophenyl)-5-hydroxy-1H-pyrazol-1-yl)-N-(3-(methylamino)propyl)nicotinamide hydrochloride] | 7.03 |
| Cc1cc(C#N)ccc1-c1cnn(-c2ccc(C(=O)N3CCN4CCCC4C3)cn2)c1O (stereo not drawn) [Example 407, 4-(5-hydroxy-1-(5-(octahydropyrrolo[1,2-a]pyrazine-2-carbonyl)pyridin-2-yl)-1H-pyrazol-4-yl)-3-methylbenzonitrile] | 8.23 |
| CCCN1CCCN(C(=O)c2ccc(-n3ncc(-c4ccc(C#N)cc4C)c3O)nc2)CC1 [Example 424, 4-(5-hydroxy-1-(5-(4-propyl-1,4-diazepane-1-carbonyl)pyridin-2-yl)-1H-pyrazol-4-yl)-3-methylbenzonitrile] | 7.70 |

System: HIF1a protein in H9c2 rat cardiomyocytes
Test: Cell-based HIF-alpha stabilization assay (inhibition of PHD in cells)
Settings: 24 hrs compound incubation, HIF1a protein by ELISA
Experimental: Example B Inhibition of PHD in Cells
PHD Inhibition is Determined Using (Secondary Assay)
Cell-Based HIF-Alpha Stabilization Assay:
H9c2 rat cardiomyocytes (ATCC) were seeded in 96-well tissue culture microplates and cultured for 24 hours prior to addition of compounds (11 point range of serial dilutions) or dimethylsulfoxide vehicle. After 24 hrs of compound incubation, whole cell extracts were prepared by lysing cells in cell extraction buffer containing protease and phosphatase inhibitors (Meso-Scale Discovery). HIF1a protein content was assessed by ELISA (Meso-Scale Discovery) and expressed as a % relative to the maximum response obtained from the positive control, desferrioxamine (Sigma-Aldrich). Compound EC50s were obtained by curve-fitting using XLfit4 MicroSoft Excel curve-fitting software. Compound EC50pos were obtained using XLfit4 to calculate the compound concentration that results in 50% of the desferrioxamine maximum response.

| Structure (SMILES) | Inhibition of PHD in cells (pEC50) |
| --- | --- |
| COc1cc(-c2cnn(-c3ccc(C(=O)NCCCn4ccnc4)cn3)c2O)ccn1 [Example 21, N-(3-(1H-imidazol-1-yl)propyl)-6-(5-hydroxy-4-(2-methoxypyridin-4-yl)-1H-pyrazol-1-yl)nicotinamide] | 6.46 |
| C[C@@H](NC(=O)c1ccc(-n2ncc(-c3ccc(C#N)cc3)c2O)nc1)C1CC1 [Example 88, (R)-6-(4-(4-cyanophenyl)-5-hydroxy-1H-pyrazol-1-yl)-N-(1-cyclopropylethyl)nicotinamide] | 5.50 |

Same assay, conditions: Rattus norvegicus, H9c2, 24 h, 24 hrs compound incubation, HIF1a protein by ELISA, read-out: Inhibition of PHD in cells (pEC50) (converted)

| Structure (SMILES) | EC50 [µM] |
| --- | --- |
| COc1cc(-c2cnn(-c3ccc(C(=O)NCCC4CCOCC4)cn3)c2O)ccn1 [Example 11, 6-(5-hydroxy-4-(2-methoxypyridin-4-yl)-1H-pyrazol-1-yl)-N-(2-(tetrahydro-2H-pyran-4-yl)ethyl)nicotinamide] | 0.537 |
| COc1cc(-c2cnn(-c3ccc(C(=O)NCCCN4CCCCC4)cn3)c2O)ccn1 [Example 18, 6-(5-hydroxy-4-(2-methoxypyridin-4-yl)-1H-pyrazol-1-yl)-N-(3-(piperidin-1-yl)propyl)nicotinamide] | 0.933 |
| COc1cc(-c2cnn(-c3ccc(C(=O)NCCCN4CCCC4)cn3)c2O)ccn1 [Example 19, 6-(5-hydroxy-4-(2-methoxypyridin-4-yl)-1H-pyrazol-1-yl)-N-(3-(pyrrolidin-1-yl)propyl)nicotinamide] | 1.38 |
| COc1cc(-c2cnn(-c3ccc(C(=O)NCCC4CCCN4C)cn3)c2O)ccn1 (stereo not drawn) [Example 23, 6-(5-hydroxy-4-(2-methoxypyridin-4-yl)-1H-pyrazol-1-yl)-N-(2-(1-methylpyrrolidin-2-yl)ethyl)nicotinamide] | 1 |
| COc1cc(-c2cnn(-c3ccc(C(=O)NCCCN4CCCCC4C)cn3)c2O)ccn1 (stereo not drawn) [Example 29, 6-(5-hydroxy-4-(2-methoxypyridin-4-yl)-1H-pyrazol-1-yl)-N-(3-(2-methylpiperidin-1-yl)propyl)nicotinamide] | 0.871 |
| N#Cc1ccc(-c2cnn(-c3ccc(C(=O)NC4CCc5ccc(Cl)cc54)cn3)c2O)cc1 (stereo not drawn) [Example 79, N-(6-chloro-2,3-dihydro-1H-inden-1-yl)-6-(4-(4-cyanophenyl)-5-hydroxy-1H-pyrazol-1-yl)nicotinamide] | 1.32 |
| CN1CCC(NC(=O)c2ccc(-n3ncc(-c4ccc(C#N)cc4)c3O)nc2)CC1=O (stereo not drawn) [Example 82, 6-(4-(4-cyanophenyl)-5-hydroxy-1H-pyrazol-1-yl)-N-(1-methyl-2-oxopiperidin-4-yl)nicotinamide] | 4.79 |
| COc1ccc2c(c1)C(NC(=O)c1ccc(-n3ncc(-c4ccc(C#N)cc4)c3O)nc1)CC2 (stereo not drawn) [Example 83, 6-(4-(4-cyanophenyl)-5-hydroxy-1H-pyrazol-1-yl)-N-(6-methoxy-2,3-dihydro-1H-inden-1-yl)nicotinamide] | 1.78 |
| COCC1(NC(=O)c2ccc(-n3ncc(-c4ccc(C#N)cc4C)c3O)nc2)CC1 [Example 118A, 6-(4-(4-cyano-2-methylphenyl)-5-hydroxy-1H-pyrazol-1-yl)-N-(1-(methoxymethyl)cyclopropyl)nicotinamide] | 0.0794 |
| COCCNC(=O)c1cnc(-n2ncc(-c3ccc(C#N)cc3)c2O)cc1C [Example 276, 6-(4-(4-cyanophenyl)-5-hydroxy-1H-pyrazol-1-yl)-N-(2-methoxyethyl)-4-methylnicotinamide] | 3.63 |
| CCN1CCC(CN(C)C(=O)c2ccc(-n3ncc(-c4ccc(C#N)cc4)c3O)nc2)C1 (stereo not drawn) [Example 366, 6-(4-(4-cyanophenyl)-5-hydroxy-1H-pyrazol-1-yl)-N-((1-ethylpyrrolidin-3-yl)methyl)-N-methylnicotinamide] | 3.8 |
